PMC8437142 (The Journal of physiology, 2021)

What was measured:
[1] = Serum morphine and metabolites by UPLC-MS/MS after s.c. morphine; conditions: rat, sc, 4 mg/kg
opioid receptors = conditions: ref Lewis et al., 2010; Doyle & Murphy, 2018; cited from earlier work

Row | Compound | concentration at 4.5 h [1] [ng/mL] | affinity for opioid receptors (opioid receptors)
1 | CN1CC[C@]23c4c5ccc(O)c4O[C@H]2[C@@H](O[C@@H]2O[C@H](C(=O)O)[C@@H](O)[C@H](O)[C@H]2O)C=C[C@H]3[C@H]1C5 [Morphine-6-glucuronide, morphine-6-glucuronide] | < 1 | –
2 | CN1CC[C@]23c4c5ccc(O[C@@H]6O[C@H](C(=O)O)[C@@H](O)[C@H](O)[C@H]6O)c4O[C@H]2[C@@H](O)C=C[C@H]3[C@H]1C5 [Morphine-3-glucuronide, morphine-3-glucuronide] | – | no affinity
